The record followed here is publication PMC6213879, “Synthesis and Biological Evaluation of Novel Dehydroabietic Acid-Oxazolidinone Hybrids for Antitumor Properties” (International Journal of Molecular Sciences, 2018).

As usually defined, the IC50 is the concentration at which inhibition is half-maximal. The melting point is the temperature of the solid-liquid transition.

Series [1] concerns human normal liver cell line LO2. Briefly: MTT cytotoxicity assay, normal LO2 cells. Conditions: Homo sapiens, L02, 48 h, mean ± SD from three independent experiments. Format: cell-based. As to the method:
(§1) The in vitro antiproliferative activity of the DHAA derivatives 3a–o and 4a–o against four human cancer cell lines (MGC-803 human gastric cancer cell line, CNE-2 human nasopharyngeal carcinoma cell line, SK-OV-3 human ovarian carcinoma cell line, NCI-H460 human lung cancer cell line) and the human normal liver cell line LO2 were evaluated by MTT (methyl thiazolytetrazolium) assay and compared with the parent compound DHAA and the positive control cisplatin in each panel.
(§2) The cytotoxicity of the compounds was evaluated against NCI-H460, MGC-803, SK-OV-3, CNE-2 and LO2 using an MTT assay. Cells were grown on 96-well micro-plates at a density of 4 × 10^3 cells per well in DMEM (dulbecco’s modified eagle medium) medium with 10% FBS (fetal bovine serum). The plates were incubated at 37 °C with 5% CO2. The cells were then exposed to different concentrations of target compounds and cisplatin and incubated for another 48 h. Control wells were formed by culture media with the maximum concentration of DMSO used in each assay (1‰). The cells were stained with 20 µL of MTT in an incubator for about 4 h. The medium was thrown away and replaced by […] DMSO. The absorbance (OD) value was read at 490 nm on an enzyme labeling instrument. Each experiment was repeated at least three times to obtain the mean values.
On the technique in general: Formazan colour is commonly taken as a measure of viable cells.

Series [2] deals with MGC-803 cells. The series is described as follows: Apoptosis analysis, Annexin-V/FITC and PI, flow cytometry. It counts as cell-based, human. Conditions: 48 h, control 9.3%. Here is the method:
In order to further confirm whether the 4j-induced reduction in cell viability was responsible for the induction of apoptosis, MGC-803 cells were investigated using the PI and Annexin-V/FITC (fluorescein isothiocyanate) and the number of apoptotic cells was estimated by flow cytometry, after the treatment of the MGC-803 cells at concentrations of 5 and 10 µM for 48 h. The results are illustrated in Figure 2.
MGC-803 cells were seeded at a concentration of 2 × 10^6 cells/mL of the DMEM medium with 10% FBS on 6-well plates to the final volume of 2 mL, and then treated with compound 4j at different concentrations for 48 h. After 48 h, the cells were collected and washed twice with PBS and then resuspended in 100 µL 1 × binding buffer, The cells were subjected to 5 µL of FITC Annexin V and 5 µL propidium iodide (PI) staining using an annexin-V FITC apoptosis kit (BD, Pharmingen) and incubated for 30 min at RT (25 °C) in the dark. Then, 100µL 1× binding buffer were added. The apoptosis ratio was quantified by system software (Cell Quest; BD Biosciences, Becton Dickinson FACSAriaIII, NY, USA).

Series [3] relates to MGC-803, CNE-2, SK-OV-3, NCI-H460. Briefly: MTT cytotoxicity assay, summary over the four cancer cell lines. The note with it: Homo sapiens; range over MGC-803, CNE-2, SK-OV-3, NCI-H460; read-out: IC50 values ranging against all the test cell lines. Format: cell-based. As to the method: as §1, §2
The test system of series [4] is MGC-803 cells. Briefly: Cell cycle analysis by PI staining and flow cytometry. Format: cell-based, human. Conditions: MGC-803, 48 h. Here is the method: To determine the possible role of cell cycle arrest in 4j-induced growth inhibition, MGC-803 cells were treated with different concentrations of compound 4j for 48 h. The cell cycle distribution was investigated by flow cytometric analysis following the staining of DNA with propidium iodide (PI).
The MGC-803 cell line was treated with different concentrations of compound 4j. After 48 h of incubation, cells were washed twice with ice-cold PBS, fixed and permeabilized with ice-cold 70% ethanol at −20 °C overnight. The cells were treated with 100 µg /mL RNase A at 37 °C for 30 min, after being washed with ice-cold PBS, and finally stained with 1 mg/mL propidium iodide (PI) (BD, Pharmingen) in the dark at 4 °C for 30 min. Analysis was performed with the system software (Cell Quest; BD Biosciences, Becton Dickinson FACSAriaIII, NY, USA).
(Flow cytometry measures light scatter and fluorescence of single cells or particles in a stream.)

The test system of series [5] is NCI-H460 human lung cancer cell line. The series is described as follows: MTT cytotoxicity assay, NCI-H460. It counts as cell-based. The note with it: Homo sapiens, NCI-H460, 48 h, mean ± SD from three independent experiments. As to the method:
as §1, §2

In series [6] the test system is MGC-803 human gastric cancer cell line. The series is described as follows: MTT cytotoxicity assay, MGC-803. It counts as cell-based. The note with it: Homo sapiens, MGC-803, 48 h, mean ± SD from three independent experiments. As to the method:
as §1, §2

Series [7] concerns CNE-2 human nasopharyngeal carcinoma cell line. The series is described as follows: MTT cytotoxicity assay, CNE-2. It counts as cell-based. The note with it: Homo sapiens, CNE-2, 48 h, mean ± SD from three independent experiments. Here is the method: as §1, §2
Series [8] relates to MGC-803 cells. The series is described as follows: Hoechst 33258 staining assay. Format: cell-based, human. Conditions: 48 h. As to the method:
Hoechst 33258 is a dye that is utilized to identify the transitions of a cell’s nuclear morphology. To determine the morphological changes induced by compound 4j in MGC-803 cells, Hoechst 33258 staining was carried out. MGC-803 cells were treated with various concentrations (0, 1.0, 5.0, 10 µM) of compound 4j for 48 h, and stained with Hoechst 33258.
Cells grown on a sterile cover slip in six-well plates were treated with different concentrations of the test compound for 48 h. The culture medium containing compounds was removed, and the cells were fixed in 4% paraformaldehyde for 10 min. After being washed twice with PBS, the cells were stained with 0.5 mL of Hoechst 33258 (Beyotime, Shanghai, China) for 5 min, and then again washed twice with PBS. The stained nuclei were observed under an OLYMPUS 1X73 fluorescence microscope using 350 nm for excitation and 460 nm for emission.

Series [9] relates to SK-OV-3 human ovarian carcinoma cell line. Briefly: MTT cytotoxicity assay, SK-OV-3. It counts as cell-based. Conditions: Homo sapiens, SK-OV-3, 48 h, mean ± SD from three independent experiments. As to the method:
as §1, §2

For the molecule `CC(C)c1ccc2c(c1)CCC1[C@](C)(C(=O)OCC3CN(c4ccc(F)cc4)C(=O)O3)CCC[C@]21C` (stereo partly drawn) [Compound 4j, (1R,4aS)-(3-(4-Fluorophenyl)-2-Oxooxazolidin-5-yl)Methyl-7-Isopropyl-1,4a-Dimethyl-1,2,3,4,4a,9,10,10a-Octahydrophenanthrene-1-Carboxylate], the melting point lay in the range of 112.8 to 117.5 °C. The molecule also gave a half-inhibitory concentration (IC50) in series [1] of over 100 µM. The “percentage of all apoptotic cells (early and late)” value in the series on MGC-803 cells [2] (5 µM) was 28.5%. Further, in the series on MGC-803 cells [2] (10 µM), the “percentage of all apoptotic cells (early and late)” value is given as 34.3%. Further, the concentration for half-maximal inhibition (IC50) in [3] lay within 3.82 to 17.8 µM. Besides, the cell cycle arrest result in the series with MGC-803 cells [4] is reported as “mainly arrested the MGC-803 cells in the G1 phase”. Also, half-maximal inhibition in series [5] (IC50) required 8.44 ± 0.36 µM. For the same molecule, inhibition in series [6] was half-maximal at 3.82 ± 0.18 µM (IC50). Besides, the IC50 in series [7] was found to be 17.8 ± 4.69 µM. The “nuclear morphological changes (Hoechst 33258)” value with MGC-803 cells [8] (10.0 µM) is “number of apoptotic nuclei significantly increased”. In addition, the “nuclear morphological changes (Hoechst 33258)” value with MGC-803 cells [8] (1.0 and 5.0 µM) was “some exhibited bright-blue fluorescence due to chromatin condensation”. The same molecule yielded an IC50 in series [9] of 4.66 ± 2.13 µM.
